According to PubChem BioAssay AID489022 (Sanford-Burnham Center for Chemical Genomics, 2010):
pIC50: −log10 of the molar value. The source made the active and inactive calls. How the calls were made is not given here.

Test system: HEK-293T NF-kB luciferase reporter, luminescence counterscreen
Assay: inhibitors of NF-kB luciferase reporter, HEK-293T, dose response, counter-screen for BCR NF-kB inhibitor project, luminescence, B-cell screen hits (AID 489022)

| SMILES | IC50 | pIC50 |
| --- | --- | --- |
| CCN(CC(=O)Nc1c(F)cccc1F)C(=O)c1cc([N+](=O)[O-])ccc1N1CCCCC1 | > 80 µM (inactive) |  |
| O=C(CN1C(=O)c2ccccc2S1(=O)=O)c1ccc(OC(F)F)cc1 |  | 5.28 |
| COc1ccc(NC(=O)c2nnn(Cc3cccc(F)c3)c2N)c(OC)c1 | > 80 µM (inactive) |  |
| Cc1cc(C)c2nc(NC(=O)[C@@H](NC(=O)c3cccc(S(=O)(=O)N4CCOCC4)c3)C(C)C)sc2c1 | > 80 µM (inactive) |  |
| Cc1c(CCC(=O)O)c(=O)oc2cc3oc4c(c3cc12)CCCC4 |  | 5.23 |
| CN(C)CCCN=Cc1c(-c2ccccc2)[nH]n(-c2nc3ccccc3s2)c1=O | > 80 µM (inactive) |  |
| COc1cc(C(=O)Nc2cc(C)c(OCC(=O)N3CCOCC3)c(C)c2)cc(OC)c1OC | > 80 µM (inactive) |  |
| CC(C)N1C(=O)S/C(=C/c2ccc3c(c2)n(C)c(=O)n3C)C1=O | > 80 µM (inactive) |  |
| COc1ccc(/C=C2/SC(=S)N(CCCC(=O)Nc3ccc(O)cc3)C2=O)cc1 | > 80 µM (inactive) |  |
| COc1ccc(OC)c(NC(=O)c2[nH]c(C)c(C(C)=O)c2C)c1 | > 80 µM (inactive) |  |
| COCCCn1c(=O)/c(=C\c2cccc(OC)c2OC)s/c1=C(/C#N)C(=O)Nc1ccc(C(=O)O)cc1 | 34.1 µM (inactive) |  |
| CCOc1ccc(/C=C2\SC(=S)N(CCC(=O)Nc3cccc(C(=O)O)c3)C2=O)cc1 | > 80 µM (inactive) |  |
| CCn1c(=S)[nH]c2cc(S(=O)(=O)N3CCCCC3)ccc21 | 33.9 µM (inactive) |  |
| CCOc1ccc(-c2cc(CCCC(=O)NCCCOC)no2)cc1 | 60 µM (inactive) |  |
| COc1cc(-c2cc(=O)c3c(O)c(OC)c(OC)c(OC)c3o2)cc(OC)c1OC | > 80 µM (inactive) |  |
| C=C1C(=O)[C@@]23C[C@H]4[C@@H]5[C@@]6(C)CCC[C@@]57[C@@H]2[C@@H](O)[C@@H]1C[C@H]3[C@H]7N4C6 |  | 4.76 |
| Cc1ccc(/C=C2\SC(=S)N(CCCC(=O)Nc3cccnc3)C2=O)cc1 | 51.8 µM (inactive) |  |
| COc1ccccc1/C=C1\SC(=S)N(CCC(=O)Nc2cc(C)on2)C1=O | > 80 µM (inactive) |  |
| CCCCCCn1c(-c2ccco2)nc2oc3cc(OC)ccc3c(=O)c2c1=O | > 80 µM (inactive) |  |
| Cc1nnc2c3ccccc3c(-c3ccccc3)nn12 | 61.4 µM (inactive) |  |
| CCOC(=O)Cc1csc(NC(=S)NC(=O)c2ccc(C)cc2)n1 | > 80 µM (inactive) |  |
| NNC(=O)COc1ccc(-c2nccc(-c3ccc(F)cc3)n2)cc1 | 42.3 µM (inactive) |  |
| NC(=O)C1CCN(C(=O)COc2ccc3ccccc3c2Br)CC1 | > 80 µM (inactive) |  |

| SMILES | IC50 | pIC50 |
| --- | --- | --- |
| COC(=O)CSc1nnc(-c2sc3ccccc3c2Cl)o1 |  | 5.14 |
| CCCOc1ccc(NC(=O)C(=O)NCCCn2ccnc2)cc1 | > 80 µM (inactive) |  |
| Cc1c(CC(=O)NCCCC(=O)O)c(=O)oc2cc3c(cc12)CCC(C)(C)O3 |  | 5.47 |
| CCOC(=O)Cc1csc(NC(=S)NC(=O)c2ccc(Cl)cc2)n1 | > 80 µM (inactive) |  |
| CN1C(=O)CSc2ccc(NC(=O)N3CCN(c4ccccc4)CC3)cc21 | 50.5 µM (inactive) |  |
| CCOc1ccc(NC(=O)CCCc2cc(-c3ccc(OCC)cc3)on2)cc1 | > 80 µM (inactive) |  |
| N=c1c2c(n(Cc3cccc(Cl)c3)c3c1CCC3)CCCC2 |  | 5.42 |
| CCSc1ncc(Cl)c(C(=O)Nc2sc3c(c2C(=O)NCc2cccnc2)CCCC3)n1 | > 80 µM (inactive) |  |
| O=C(Oc1cccc(/C=N/Nc2nc(Nc3ccccc3)nc(N3CCOCC3)n2)c1)c1ccco1 | > 80 µM (inactive) |  |
| CC1CCC/C=C/C2CC(O)CC2C(O)/C=C/C(=O)O1 (centres undefined) |  | 6.28 |
| CCOC(=O)N1CCN(CC(=O)Nc2ccc([N+](=O)[O-])cc2C(=O)Nc2ccccc2F)CC1 | 29.4 µM (inactive) |  |
| O=C(CCCN1C(=O)S/C(=C/C=C/c2ccccc2)C1=O)Nc1ccc(C(=O)O)cc1 | > 80 µM (inactive) |  |
| CCc1ccc(-c2nc(CSCC(=O)NC3CC3)c(C)o2)cc1 | 30.5 µM (inactive) |  |
| CCOc1ccc(-c2nnc(SCC(=O)NC3CC3)o2)cc1 | > 80 µM (inactive) |  |
| O=C(Nc1ccccc1C(=O)Nc1nnc(C(F)(F)F)s1)c1ccccc1 |  | 5.36 |
| C=C(C)[C@@H]1CCC2(C(=O)O)CC[C@]3(C)[C@H](CC[C@@H]4[C@@]5(C)CCC(=O)C(C)(C)[C@@H]5CC[C@]43C)[C@@H]12 (some centres undefined) |  | 5.48 |
| CCc1ccc(/C=C2\SC(=S)N(CCCC(=O)Nc3ccccn3)C2=O)cc1 | > 80 µM (inactive) |  |
| Cc1[nH]c2ccccc2c1C(=O)CN1C(=O)NC2(CC(C)CC(C)(C)C2)C1=O (centres undefined) | 43.3 µM (inactive) |  |
| CCn1c(=O)c2cc(C(=O)NC(C)C)sc2c2ccccc21 | > 80 µM (inactive) |  |
| COc1ccc(C(=O)n2nc(-c3ccc(Cl)cc3)nc2N)cc1OC | > 80 µM (inactive) |  |
| CC1Cc2ccccc2N1S(=O)(=O)c1cnc(Cl)c(Cl)c1 (centres undefined) | 77.8 µM (inactive) |  |
| Cc1ccc(Sc2cc(NCCCO)c([N+](=O)[O-])c3nonc23)cc1 | > 80 µM (inactive) |  |
| OCCN1CCN(C(=S)c2ccc(-c3ccccc3)cc2)CC1 | 31.6 µM (inactive) |  |

| SMILES | IC50 | pIC50 |
| --- | --- | --- |
| COc1cc(/C(C)=N\NC(N)=S)cc(OC)c1OC | > 80 µM (inactive) |  |
| O=C(O)CCSc1ncnc2sc(-c3ccccc3)cc12 |  | 4.93 |
| O=C(CCCN1C(=O)/C(=C/c2ccccc2Cl)SC1=S)NNC(=O)c1ccncc1 |  | 4.90 |
| CC1CC(C)CN(S(=O)(=O)c2ccc(C(=O)NCCCn3ccnc3)cc2)C1 (centres undefined) | > 80 µM (inactive) |  |
| COc1ccc(-c2ccc(OC)c([C@H]3[C@H]4C=CC[C@@H](C)[C@@H]4C(=O)N3Cc3ccccc3)c2)cc1C | > 80 µM (inactive) |  |
| CN(CC1CCCO1)S(=O)(=O)c1ccc(C(=O)Nc2nc3cc4c(cc3s2)OCO4)cc1 (centres undefined) |  | 6.44 |
| Cn1nnnc1Sc1ncnc2scc(Br)c12 |  | 5.37 |
| CCc1ccc(/C=C2\SC(=S)N(CCC(=O)NC3=NCCS3)C2=O)cc1 | > 80 µM (inactive) |  |
| CCc1ccc2[nH]c3nc(N/N=C/c4cccc(O)c4)nnc3c2c1 | > 80 µM (inactive) |  |
| N#CC1=C(N)Oc2cc(Nc3ccccc3)ccc2C1c1ccncc1 (centres undefined) |  | 5.21 |
| CCN1CCN(C(=O)CSc2cc(=O)n(CC)c3ccccc23)CC1 | > 80 µM (inactive) |  |
| Cn1c(=O)n(C)c2cc(NC(=O)CSc3nnc(-c4ccccc4O)n3-c3ccccc3)ccc21 |  | 4.74 |
| CN(C)S(=O)(=O)c1ccc(NC(=O)N2CCN(c3ccccc3)CC2)cc1 | > 80 µM (inactive) |  |
| COc1ccc(S(=O)(=O)Nc2cc3c(C(C)=O)c(C)oc3c3ccccc23)cc1 | > 80 µM (inactive) |  |
| O=C(NCCCN1CCOCC1)c1cc(-c2ccc(Br)cc2)on1 | 43.7 µM (inactive) |  |
| O=c1cccc2c1c1cc[nH]c3ccc(=O)n2c31 |  | 5.53 |
| CN(C)C(=O)CCc1nc(-c2ccc(C(C)(C)C)cc2)no1 | 51.8 µM (inactive) |  |
| O=C(NCCC1CCCCN1S(=O)(=O)c1ccc(Cl)cc1)C(=O)NCc1ccncc1 (centres undefined) | 20.4 µM (inactive) |  |
| COc1ccc(/C=C2\SC(=S)N(CCCC(=O)NNC(=O)c3ccccc3O)C2=O)cc1 |  | 5.64 |
| COc1ccc(Cc2nc(-c3ccc(NC(=O)c4cccnc4)cc3)no2)cc1 | > 80 µM (inactive) |  |
| CCOC(=O)CNC(=O)CSc1nnc(NC(=O)c2ccc(C)cc2)s1 |  | 5.15 |
| CC1=CC(C)(C)Nc2ccc(OC(=O)C(C)N3C(=O)c4ccccc4C3=O)cc21 (centres undefined) |  | 4.94 |
| N=c1ccn2c(n1)OC1C(O)C(CO)OC12 (centres undefined) | > 80 µM (inactive) |  |
